The target in this assay is T1, human recombinant ALK1 (GST fused to ALK1 intracellular domain [His142-Gln503]) (Homo sapiens, UniProt P37023).
T1 construct: GST fused to ALK1 intracellular domain [His142-Gln503]; made in house
T1 sequence (P37023 142-503): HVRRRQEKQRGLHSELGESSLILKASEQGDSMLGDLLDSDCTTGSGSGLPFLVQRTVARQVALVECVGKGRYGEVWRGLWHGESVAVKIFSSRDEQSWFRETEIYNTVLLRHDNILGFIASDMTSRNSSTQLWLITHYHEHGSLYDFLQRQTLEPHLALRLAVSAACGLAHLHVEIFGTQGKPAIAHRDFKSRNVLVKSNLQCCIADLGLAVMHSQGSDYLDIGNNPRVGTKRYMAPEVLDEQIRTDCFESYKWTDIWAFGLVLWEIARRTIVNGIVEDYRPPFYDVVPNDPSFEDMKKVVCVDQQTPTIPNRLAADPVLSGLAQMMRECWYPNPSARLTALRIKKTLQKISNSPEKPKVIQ
Nature of the assay: ALK1-Kinase Flashplate-Assay. The assay is classed as biochemical. As to conditions: 0.5 μM ATP, biotinylated α-casein substrate; read-out: Assay 1 (ALK1-Kinase Flashplate-Assay IC50 class). An excerpt:
Biological Assay 1: ALK1-Kinase Flashplate-Assay
ALK1 phosphorylates serine/threonine residues of the biotinylated substrate bovine α-casein in the presence of [γ-^33P]ATP. Detection of the radiolabeled phosphorylated product is achieved by binding to streptavidine-coated Flashplates. The biotin moieties of biotinylated casein bind with high affinity to the streptavidine. The radiolabeled biotinylated casein produced by the ALK1 kinase reaction is able to generate a […] signal when strepatavidine-mediated binding occurs to the scintillant-containing surface of the Flashplates due to the close proximity of the radiolabel and the scintillant. […] The signals obtained are therefore indicative of the ALK1 kinase activity. Measurement is performed in a Perkin-Elmer TopCount or Perkin-Elmer ViewLux instrument.
Enzyme: Purified human recombinant ALK1 (GST fused to ALK1 intracellular domain [His142-Gln503]) produced in-house, aliquots stored at −80° C.;
Diluted enzyme working solution: 2.5 ng/μl ALK1 (in assay buffer) freshly prepared and chilled on ice until use.
Substrate: biotinylated bovine α-casein. Unbiotinylated casein obtained from Sigma was biotinylated by standard procedures using N-hydroxysuccinimide (NHS) ester of biotin.
Substrate working solution: 0.83 μM ATP, 1.67 μM biotinylated a-casein, 7.4 nCi [γ-^33P]ATP/μl in assay buffer
Assay plates: 384-well plates, small volume, white, Greiner (# 784075)
Flashplates: Streptavidin-coated Flashplates, Perkin Elmer (384-well # SPM410A)
Assay buffer: 50 mM Tris/HCl pH 8.0, 1 mM MnCl2, 1 mM DTT, 0.01% NP40, 0.5× Complete EDTA-free
Stop solution: 33.3 μM ATP, 33.3 mM EDTA, 0.07% Triton X-100 in PBS
Saturating buffer for Flashplates: 100 μM ATP, 0.2% Triton X-100 in PBS
Sealing tape: Greiner (# 676080)
Protocol for small volume 5 μl assay (all steps are performed at 20° C., pipetted with CyBi-Well and Multidrop Micro): • 1. 50 nl or 250 nl compound in 100% DMSO • 2. addition of 3 μl substrate working solution with CyBi-Well pipettor • 3. addition of 2 μl enzyme working solution with Multidrop Micro incubation for 60 min at room temperature • 4. addition of 15 μl Stop solution with CyBi-Well pipettor • 5. transfer of 18 μl assay mixture to Flashplates** with CyBi-Well pipettor incubation for at least 3 h at room temperature or over night at 4° C. to allow binding to the streptavidine-coated Flashplates • 6. washing the Flashplates 3 times with 50 μl PBS without Ca++ and Mg++ • 7. sealing with sealing tape • 8. Measurement in Topcount (60 sec/well) **Saturation of Flashplates: The Flashplates are preincubated for at least 1 hour with 50 μl saturating buffer. Remove 18 μl from the 50 μl and transfer 18 μl of the assay mixture to the Flashplate.
Final concentrations, calculated for 5 μl reaction volume: ALK1 5 ng/well; 1 μM biotinylated α-casein; 0.5 μM ATP; 22 nCi/well [γ-^33P]ATP; 1 mM MnCl2; 1 mM DTT; 50 mM Tris-HCl; pH 8.0; 0.01% NP40; 0.5× Complete EDTA-free; 1% or 5% DMSO.
The data were normalised (enzyme reaction without inhibitor=0% inhibition, enzyme reaction in the presence of 10 mM EDTA=100% inhibition) and IC50 values were calculated by a 4 parameter fit using an in-house software.

Bounds are passed on as bounds.

For the compound `OCCNc1ccn2ncc(-c3ccc4c(c3)OCO4)c2n1` [Example 70, 2-(3-Benzo[1,3]dioxol-5-yl-pyrazolo[1,5-a]pyrimidin-5-ylamino)-ethanol], the IC50 fell in the range of 1 to 10 µM.

Turning to `COc1ccc(-c2cnn3ccc(NCCO)nc23)cc1OC` [Example 73, 2-[3-(3,4-Dimethoxy-phenyl)-pyrazolo[1,5-a]pyrimidin-5-ylamino]-ethanol], the IC50 was below 1 µM.

As for `OCCNc1ccn2ncc(-c3ccc(O)cc3)c2n1` [Example 74, 4-[5-(2-Hydroxy-ethylamino)-pyrazolo[1,5-a]pyrimidin-3-yl]-phenol], the IC50 is 1 to 10 µM.

With `COc1cc(Nc2ccn3ncc(-c4cc(OC)c(OC)c(OC)c4)c3n2)cc(OC)c1OC` [Example 77, (3,4,5-Trimethoxy-phenyl)-[3-(3,4,5-trimethoxy-phenyl)-pyrazolo[1,5-a]pyrimidin-5-yl]-amine], the IC50 is below 1 µM.

On to `COc1cc(Nc2ccn3ncc(-c4cccc(C(=O)NCCO)c4)c3n2)cc(OC)c1OC` [Example 79, N-(2-Hydroxy-ethyl)-3-[5-(3,4,5-trimethoxy-phenylamino)-pyrazolo[1,5-a]pyrimidin-3-yl]-benzamide], for which the IC50 was 1 to 10 µM.

As to `O=C(O)CCc1ccc(-c2cnn3ccc(Nc4ccc(O)cc4)nc23)cc1` [Example 83, 3-{4-[5-(4-Hydroxy-phenylamino)-pyrazolo[1,5-a]pyrimidin-3-yl]-phenyl}-propionic acid], the IC50 was 1 to 10 µM.

Turning to `COc1ccccc1-c1cnn2ccc(Nc3ccc(O)cc3)nc12` [Example 84, 4-[3-(2-Methoxy-phenyl)-pyrazolo[1,5-a]pyrimidin-5-ylamino]-phenol], the IC50 fell in the range of 1 to 10 µM.

Turning to `N#Cc1ccc(-c2cnn3ccc(Nc4ccc(O)cc4)nc23)cc1` [Example 86, 4-[5-(4-Hydroxy-phenylamino)-pyrazolo[1,5-a]pyrimidin-3-yl]-benzonitrile], the IC50 was in the range of 1 to 10 µM.

`COc1cncc(-c2cnn3ccc(Nc4ccc(O)cc4)nc23)c1` [Example 87, 4-[3-(5-Methoxy-pyridin-3-yl)-pyrazolo[1,5-a]pyrimidin-5-ylamino]-phenol]: the IC50 was below 1 µM.

As to `COc1ccc(Nc2ccn3ncc(-c4cc(OC)c(OC)c(OC)c4)c3n2)cn1` [Example 90, (6-Methoxy-pyridin-3-yl)-[3-(3,4,5-trimethoxy-phenyl)-pyrazolo[1,5-a]pyrimidin-5-yl]-amine], the IC50 was below 1 µM.

Regarding `COc1ccc(Nc2ccn3ncc(-c4cccc(C(=O)NCCO)c4)c3n2)cn1` [Example 92, N-(2-Hydroxy-ethyl)-3-[5-(6-methoxy-pyridin-3-ylamino)-pyrazolo[1,5-a]pyrimidin-3-yl]-benzamide], the IC50 was 1 to 10 µM.

Consider `COc1cc(-c2cnn3ccc(Nc4ccc(C(C)C)cc4)nc23)cc(OC)c1OC` [Example 97, (4-Isopropyl-phenyl)-[3-(3,4,5-trimethoxy-phenyl)-pyrazolo[1,5-a]pyrimidin-5-yl]-amine], for which the IC50 was below 1 µM.

Consider `COc1cc(-c2cnn3ccc(Nc4ccc(C)c(NS(C)(=O)=O)c4)nc23)cc(OC)c1OC` [Example 105, N-{2-Methyl-5-[3-(3,4,5-trimethoxy-phenyl)-pyrazolo[1,5-a]pyrimidin-5-ylamino]-phenyl}-methanesulfonamide], for which the IC50 is below 1 µM.

On to `COc1cncc(-c2cnn3ccc(Nc4ccc(C)c(NS(C)(=O)=O)c4)nc23)c1` [Example 107, N-{5-[3-(5-Methoxy-pyridin-3-yl)-pyrazolo[1,5-a]pyrimidin-5-ylamino]-2-methyl-phenyl}-methanesulfonamide], for which the IC50 lay within 1 to 10 µM.

Turning to `FC(F)(F)Oc1cccc(-c2cnn3ccc(NCc4ccncc4)nc23)c1` [Example 113, Pyridin-4-ylmethyl-[3-(3-trifluoromethoxy-phenyl)-pyrazolo[1,5-a]pyrimidin-5-yl]-amine], the IC50 was below 1 µM.

With `COc1cncc(-c2cnn3ccc(NC4CCC(O)CC4)nc23)c1` (centres unmarked) [Example 116, 4-[3-(5-Methoxy-pyridin-3-yl)-pyrazolo[1,5-a]pyrimidin-5-ylamino]-cyclohexanol], the IC50 fell in the range of 1 to 10 µM.

On to `N#Cc1ccc(-c2cnn3ccc(NCCO)nc23)cc1` [Example 119, 4-[5-(2-Hydroxy-ethylamino)-pyrazolo[1,5-a]pyrimidin-3-yl]-benzonitrile], for which the IC50 fell in the range of 1 to 10 µM.

In the case of `COc1cc(-c2cnn3ccc(NCCO)nc23)cc(OC)c1OC` [Example 120, 2-[3-(3,4,5-Trimethoxy-phenyl)-pyrazolo[1,5-a]pyrimidin-5-ylamino]-ethanol], the IC50 is below 1 µM.

With `OCCNc1ccn2ncc(-c3ccc(Cl)cc3)c2n1` [Example 121, 2-[3-(4-Chloro-phenyl)-pyrazolo[1,5-a]pyrimidin-5-ylamino]-ethanol], the IC50 was 1 to 10 µM.

Turning to `OCCNc1ccn2ncc(-c3cccc(OC(F)(F)F)c3)c2n1` [Example 122, 2-[3-(3-Trifluoromethoxy-phenyl)-pyrazolo[1,5-a]pyrimidin-5-ylamino]-ethanol], the concentration for half-maximal inhibition (IC50) lay in the range of 1 to 10 µM.

Turning to `COc1cncc(-c2cnn3ccc(NCCO)nc23)c1` [Example 123, 2-[3-(5-Methoxy-pyridin-3-yl)-pyrazolo[1,5-a]pyrimidin-5-ylamino]-ethanol], the IC50 was below 1 µM.

`COc1cc(-c2cnn3ccc(NCc4cccnc4)nc23)cc(OC)c1OC` [Example 126, Pyridin-3-ylmethyl-[3-(3,4,5-trimethoxy-phenyl)-pyrazolo[1,5-a]pyrimidin-5-yl]-amine]: the IC50 was 1 to 10 µM.

For `FC(F)(F)Oc1cccc(-c2cnn3ccc(Nc4ccc(N5CCOCC5)cc4)nc23)c1` [Example 129, (4-Morpholin-4-yl-phenyl)-[3-(3-trifluoromethoxy-phenyl)-pyrazolo[1,5-a]pyrimidin-5-yl]-amine], the IC50 was 1 to 10 µM.

As to `O=C(NCCO)c1cccc(-c2cnn3ccc(Nc4ccc(N5CCOCC5)cc4)nc23)c1` [Example 130, N-(2-Hydroxy-ethyl)-3-[5-(4-morpholin-4-yl-phenylamino)-pyrazolo[1,5-a]pyrimidin-3-yl]-benzamide], the IC50 is 1 to 10 µM.

As to `COc1cc(-c2cnn3ccc(NCCN(C)C)nc23)cc(OC)c1OC` [Example 134, N,N-Dimethyl-N-[3-(3,4,5-trimethoxy-phenyl)-pyrazolo[1,5-a]pyrimidin-5-yl]-ethane-1,2-diamine], the IC50 lay within 1 to 10 µM.

Take `CN(C)CCNc1ccn2ncc(-c3ccc(C(=O)O)cc3)c2n1` [Example 136, 4-[5-(2-Dimethylamino-ethylamino)-pyrazolo[1,5-a]pyrimidin-3-yl]-benzoic acid]: the 50% inhibitory concentration (IC50) fell in the range of 1 to 10 µM.

Take `COc1cc(Nc2ccn3ncc(-c4cccc(O)c4)c3n2)cc(OC)c1OC` [Example 138, 3-[5-(3,4,5-Trimethoxy-phenylamino)-pyrazolo[1,5-a]pyrimidin-3-yl]-phenol]: the IC50 lay within 1 to 10 µM.

In the case of `COc1ccc(-c2cnn3ccc(Nc4ccc(O)cc4)nc23)cc1` [Example 146, 4-[3-(4-Methoxy-phenyl)-pyrazolo[1,5-a]pyrimidin-5-ylamino]-phenol], the IC50 lay within 1 to 10 µM.

`COc1ccc(-c2cnn3ccc(Nc4ccc(O)cc4)nc23)cn1` [Example 147, 4-[3-(6-Methoxy-pyridin-3-yl)-pyrazolo[1,5-a]pyrimidin-5-ylamino]-phenol]: the IC50 was below 1 µM.

These data come from patent publication US20080039455A1, “PYRAZOLOPYRIMIDINES AND SALTS THEREOF, PHARMACEUTICAL COMPOSITIONS COMPRISING SAME, METHODS OF PREPARING SAME AND USES OF SAME” (priority 2006, published 2008).
